Key:
Assay in all cases: fitness (endpoint OD595 vs no drug) (fraction); higher = more growth
B. subtilis 168 = system: B. subtilis 168
Method in brief: (§1)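 Fitness was measured as bacterial growth in 384-well plates inoculated at OD595 0.01 (30 µl, or 55 µl for S. pneumoniae). Media were TSB, LB Lennox or CY, at 37 °C. OD595 was read every 30 min for 14 h and background-subtracted against the first reading. Fitness is OD595 at the transition into stationary phase divided by the robust mean of no-drug control wells, capped at 1.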

S. aureus DSM 20231 = system: S. aureus DSM 20231
Method in brief: as §1

S. pneumoniae D39V = system: S. pneumoniae D39V
Method in brief: as §1
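Further: OD595 on entry to stationary phase over no-drug wells; at most 1.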

CN(C)[C@@H]1C(O)=C(C(N)=O)C(=O)[C@@]2(O)C(O)=C3C(=O)c4c(O)ccc(Cl)c4[C@@](C)(O)[C@H]3C[C@@H]12 [Chlortetracycline] + Cc1onc(-c2ccccc2)c1C(=O)N[C@@H]1C(=O)N2[C@@H]1SC(C)(C)[C@@H]2C(=O)O [Oxacillin]
Conditions	fitness
B. subtilis 168, first compound 0.0475 µg/mL, partner 0.002 µg/mL	0.868
B. subtilis 168, first compound 0.0475 µg/mL, partner 0.004 µg/mL	0.829
B. subtilis 168, first compound 0.0475 µg/mL, partner 0.008 µg/mL	0.832
B. subtilis 168, first compound 0.095 µg/mL, partner 0.002 µg/mL	0.802
B. subtilis 168, first compound 0.095 µg/mL, partner 0.004 µg/mL	0.764
B. subtilis 168, first compound 0.095 µg/mL, partner 0.008 µg/mL	0.726
B. subtilis 168, first compound 0.19 µg/mL, partner 0.002 µg/mL	0.488
B. subtilis 168, first compound 0.19 µg/mL, partner 0.004 µg/mL	0.401
B. subtilis 168, first compound 0.19 µg/mL, partner 0.008 µg/mL	0.416
S. aureus DSM 20231, first compound 0.012 µg/mL, partner 0.0156 µg/mL	0.452
S. aureus DSM 20231, first compound 0.012 µg/mL, partner 0.0312 µg/mL	0.379
S. aureus DSM 20231, first compound 0.012 µg/mL, partner 0.0625 µg/mL	0.341
S. aureus DSM 20231, first compound 0.024 µg/mL, partner 0.0156 µg/mL	0.204
S. aureus DSM 20231, first compound 0.024 µg/mL, partner 0.0312 µg/mL	0.173
S. aureus DSM 20231, first compound 0.024 µg/mL, partner 0.0625 µg/mL	0.165
S. aureus DSM 20231, first compound 0.048 µg/mL, partner 0.0156 µg/mL	0.0968
S. aureus DSM 20231, first compound 0.048 µg/mL, partner 0.0312 µg/mL	0.0599
S. aureus DSM 20231, first compound 0.048 µg/mL, partner 0.0625 µg/mL	0.0746
S. pneumoniae D39V, first compound 0.012 µg/mL, partner 0.01 µg/mL	0.921
S. pneumoniae D39V, first compound 0.012 µg/mL, partner 0.02 µg/mL	0.878
S. pneumoniae D39V, first compound 0.012 µg/mL, partner 0.04 µg/mL	0.6
S. pneumoniae D39V, first compound 0.024 µg/mL, partner 0.01 µg/mL	0.876
S. pneumoniae D39V, first compound 0.024 µg/mL, partner 0.02 µg/mL	0.853
S. pneumoniae D39V, first compound 0.024 µg/mL, partner 0.04 µg/mL	0.681
S. pneumoniae D39V, first compound 0.048 µg/mL, partner 0.01 µg/mL	0.821
S. pneumoniae D39V, first compound 0.048 µg/mL, partner 0.02 µg/mL	0.739
S. pneumoniae D39V, first compound 0.048 µg/mL, partner 0.04 µg/mL	0.544
S. pneumoniae D39V, first compound 0.375 µg/mL, partner 0.005 µg/mL	0.0823
S. pneumoniae D39V, first compound 0.375 µg/mL, partner 0.01 µg/mL	0.0713
S. pneumoniae D39V, first compound 0.375 µg/mL, partner 0.02 µg/mL	0.0526
S. pneumoniae D39V, first compound 0.75 µg/mL, partner 0.005 µg/mL	0.104
S. pneumoniae D39V, first compound 0.75 µg/mL, partner 0.01 µg/mL	0.0551
S. pneumoniae D39V, first compound 0.75 µg/mL, partner 0.02 µg/mL	0.0755
S. pneumoniae D39V, first compound 1.5 µg/mL, partner 0.005 µg/mL	0.0919
S. pneumoniae D39V, first compound 1.5 µg/mL, partner 0.01 µg/mL	0.0809
S. pneumoniae D39V, first compound 1.5 µg/mL, partner 0.02 µg/mL	0.0469

fitness, one replicate
Conditions	partner 0.0078 µg/mL	partner 0.0155 µg/mL	partner 0.0156 µg/mL	partner 0.031 µg/mL	partner 0.0312 µg/mL	partner 0.0625 µg/mL	partner 0.075 µg/mL	partner 0.15 µg/mL	partner 0.3 µg/mL
B. subtilis 168, first compound 0.0475 µg/mL	0.924	0.934	–	0.931	–	–	0.66	0.0283	0.0599
B. subtilis 168, first compound 0.095 µg/mL	0.926	0.814	–	0.674	–	–	0.581	0.0215	0.0316
B. subtilis 168, first compound 0.19 µg/mL	0.62	0.621	–	0.575	–	–	0.377	0.0401	0.0338
S. aureus DSM 20231, first compound 0.006 µg/mL	–	–	0.7	–	0.531	0.435	–	–	–

Reference: the supplement of paper PMC10627819
